Calls of active or inactive are those of the source. No cut-off for these calls is given here.
What was measured:
Histone deacetylase 7 = target: T1, Histone deacetylase 7 (Homo sapiens, UniProt Q8WUI4); assay: Inhibition of N-terminal GST-tagged human HDAC7 (518 to end residues) expressed in baculovirus-infected Sf9 cells assessed as reduction in 7-amino-4-methylcoumarin release measured every 5 mins by fluorescence based analysis
T1 sequence (Q8WUI4 whole entry): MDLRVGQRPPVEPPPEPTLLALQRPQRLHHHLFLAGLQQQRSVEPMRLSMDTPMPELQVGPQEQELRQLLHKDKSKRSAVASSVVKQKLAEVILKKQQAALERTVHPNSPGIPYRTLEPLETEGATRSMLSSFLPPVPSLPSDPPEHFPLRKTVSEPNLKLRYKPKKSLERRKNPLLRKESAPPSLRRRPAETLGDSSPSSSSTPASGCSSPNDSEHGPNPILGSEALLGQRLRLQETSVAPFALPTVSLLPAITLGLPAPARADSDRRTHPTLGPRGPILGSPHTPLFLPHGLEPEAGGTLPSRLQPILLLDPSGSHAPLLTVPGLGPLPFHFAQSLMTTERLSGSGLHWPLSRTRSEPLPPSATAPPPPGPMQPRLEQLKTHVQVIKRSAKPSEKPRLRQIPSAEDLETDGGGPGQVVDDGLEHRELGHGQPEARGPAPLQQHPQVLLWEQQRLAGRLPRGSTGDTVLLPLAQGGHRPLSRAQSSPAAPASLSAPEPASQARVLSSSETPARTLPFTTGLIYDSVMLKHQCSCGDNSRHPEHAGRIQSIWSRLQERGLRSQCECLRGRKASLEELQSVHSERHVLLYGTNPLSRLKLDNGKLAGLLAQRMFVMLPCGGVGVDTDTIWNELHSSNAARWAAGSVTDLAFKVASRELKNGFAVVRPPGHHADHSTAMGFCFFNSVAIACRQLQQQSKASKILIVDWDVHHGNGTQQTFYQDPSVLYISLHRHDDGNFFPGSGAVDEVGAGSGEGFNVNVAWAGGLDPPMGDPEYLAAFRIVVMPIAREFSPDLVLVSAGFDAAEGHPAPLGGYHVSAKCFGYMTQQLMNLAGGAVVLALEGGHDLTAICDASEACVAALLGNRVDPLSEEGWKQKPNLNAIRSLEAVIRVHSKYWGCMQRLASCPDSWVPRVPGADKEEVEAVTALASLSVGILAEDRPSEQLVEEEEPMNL

MCF7 [1] = assay: Upregulation of NFkB2 gene expression in human MCF7 cells at 3 uM incubated for 24 hrs by whole transcriptome analysis; format: functional, cell-based
MCF7 [2] = assay: Upregulation of RELB gene expression in human MCF7 cells at 3 uM incubated for 24 hrs by whole transcriptome analysis; format: functional, cell-based
MCF7 [3] = assay: Upregulation of HDAC8 gene expression in human MCF7 cells at 3 uM incubated for 24 hrs by whole transcriptome analysis; format: functional, cell-based
MCF7 [4] = assay: Upregulation of SIRT5 gene expression in human MCF7 cells at 3 uM incubated for 24 hrs by whole transcriptome analysis; format: functional, cell-based
Histone deacetylase 2 = Histone deacetylase 2 (Homo sapiens, UniProt Q92769); format: cell-based, Sf9
MCF7 [5] = assay: Upregulation of HDAC11 gene expression in human MCF7 cells at 3 uM incubated for 24 hrs by whole transcriptome analysis; format: functional, cell-based
MCF7 [6] = assay: Upregulation of HDAC3 gene expression in human MCF7 cells at 3 uM incubated for 24 hrs by whole transcriptome analysis; format: functional, cell-based
MCF7 [7] = assay: Upregulation of NFkB1 gene expression in human MCF7 cells at 3 uM incubated for 24 hrs by whole transcriptome analysis; format: functional, cell-based
MCF7 [8] = assay: Upregulation of HDAC10 gene expression in human MCF7 cells at 3 uM incubated for 24 hrs by whole transcriptome analysis; format: functional, cell-based
[9] = target: Histone deacetylase 3/Nuclear receptor corepressor 2 (HDAC3/NCoR2) (Homo sapiens, UniProt O15379); assay: Inhibition of C-terminal His-tagged human recombinant full length HDAC3 (1 to 428 residues)/N-terminal GST-tagged human recombinant NCOR2 (395 to 489 residues) expressed in baculovirus-infected Sf9 cells assessed as reduction in 7-amino-4-methylcoumarin release using fluorogenic HDAC substrate 3 measured every 5 mins by fluorescence based analysis
MCF7 [10] = assay: Upregulation of SIRT3 gene expression in human MCF7 cells at 3 uM incubated for 24 hrs by whole transcriptome analysis; format: functional, cell-based
MCF7 [11] = assay: Upregulation of SIRT7 gene expression in human MCF7 cells at 3 uM incubated for 24 hrs by whole transcriptome analysis; format: functional, cell-based
MCF7 [12] = assay: Upregulation of HDAC2 gene expression in human MCF7 cells at 3 uM incubated for 24 hrs by whole transcriptome analysis; format: functional, cell-based
MCF7 [13] = assay: Induction of cell cycle arrest in human MCF7 cells assessed as accumulation at subG1 phase at 1 uM incubated for 24 to 72 hrs by PI staining based flow cytometric analysis; format: functional; details: time 24-72 hrs
MCF7 [14] = assay: Upregulation of c-REL gene expression in human MCF7 cells at 3 uM incubated for 24 hrs by whole transcriptome analysis; format: functional, cell-based
Histone deacetylase 5 [15] = target: T2, Histone deacetylase 5 (Homo sapiens, UniProt Q9UQL6); assay: Potency index, ratio of vorinostat IC50 to test compound IC50 for Inhibition of N-terminal GST-tagged human recombinant full length HDAC5 expressed in baculovirus-infected Sf9 cells assessed as reduction in 7-amino-4-methylcoumarin release measured every 5 mins by fluorescence based analysis
MCF7 [16] = assay: Upregulation of RELA (p65 ) gene expression in human MCF7 cells at 3 uM incubated for 24 hrs by whole transcriptome analysis; format: functional, cell-based
Histone deacetylase 1 = Histone deacetylase 1 (Homo sapiens, UniProt Q13547); assay: Inhibition of C-terminal FLAG/His-tagged human recombinant HDAC1 (1 to 482 residues) expressed in baculovirus-infected Sf9 cells assessed as reduction in 7-amino-4-methylcoumarin release using fluorogenic HDAC substrate 3 measured every 5 mins by fluorescence based analysis
MCF7 [17] = assay: Induction of apoptosis in human MCF7 cells assessed as downregulation of c-Myc protein expression at 1 to 3 uM measured after 48 hrs western blot analysis; format: functional, cell-based; details: dose 1-3 µM
MCF7 [18] = assay: Upregulation of HDAC5 gene expression in human MCF7 cells at 3 uM incubated for 24 hrs by whole transcriptome analysis; format: functional, cell-based
MCF7 [19] = assay: Upregulation of HDAC7 gene expression in human MCF7 cells at 3 uM incubated for 24 hrs by whole transcriptome analysis; format: functional, cell-based
MCF7 [20] = assay: Induction of cell cycle arrest in human MCF7 cells assessed as accumulation at G1/S phase at 1 uM incubated for 4 hrs by PI staining based flow cytometric analysis; format: functional
Histone deacetylase 4 = Histone deacetylase 4 (Homo sapiens, UniProt P56524); assay: Inhibition of N-terminal GST-tagged/C-terminal His-tagged human recombinant HDAC4 (627 to 1084 residues) expressed in baculovirus-infected Sf9 cells assessed as reduction in 7-amino-4-methylcoumarin release measured every 5 mins by fluorescence based analysis
Histone deacetylase 9 = Histone deacetylase 9 (Homo sapiens, UniProt Q9UKV0); assay: Inhibition of C-terminal His-tagged human HDAC9 (604 to 1066 residues) expressed in baculovirus-infected Sf9 cells assessed as reduction in 7-amino-4-methylcoumarin release measured every 5 mins by fluorescence based analysis
MCF7 [21] = assay: Upregulation of HDAC1 gene expression in human MCF7 cells at 3 uM incubated for 24 hrs by whole transcriptome analysis; format: functional, cell-based
MCF7 [22] = assay: Upregulation of HDAC4 gene expression in human MCF7 cells at 3 uM incubated for 24 hrs by whole transcriptome analysis; format: functional, cell-based
MCF7 [23] = assay: Upregulation of SIRT4 gene expression in human MCF7 cells at 3 uM incubated for 24 hrs by whole transcriptome analysis; format: functional, cell-based
MCF7 [24] = assay: Induction of apoptosis in human MCF7 cells assessed as increase in caspase 3/7 activity at 1 to 3 uM measured after 48 hrs by ELISA; format: functional, cell-based; details: dose 1-3 µM
MCF7 [25] = assay: Upregulation of SIRT1 gene expression in human MCF7 cells at 3 uM incubated for 24 hrs by whole transcriptome analysis; format: functional, cell-based
MCF7 [26] = assay: Upregulation of SIRT2 gene expression in human MCF7 cells at 3 uM incubated for 24 hrs by whole transcriptome analysis; format: functional, cell-based
MCF7 [27] = assay: Upregulation of HDAC6 gene expression in human MCF7 cells at 3 uM incubated for 24 hrs by whole transcriptome analysis; format: functional, cell-based
MCF7 [28] = assay: Induction of cell cycle arrest in human MCF7 cells assessed as accumulation at G2/M phase at 1 uM incubated for 24 hrs by PI staining based flow cytometric analysis; format: functional
Histone deacetylase 5 [29] = target: T2, Histone deacetylase 5; assay: Inhibition of N-terminal GST-tagged human recombinant full length HDAC5 expressed in baculovirus-infected Sf9 cells assessed as reduction in 7-amino-4-methylcoumarin release measured every 5 mins by fluorescence based analysis
MCF7 [30] = assay: Upregulation of SIRT6 gene expression in human MCF7 cells at 3 uM incubated for 24 hrs by whole transcriptome analysis; format: functional, cell-based

T2 sequence (Q9UQL6 whole entry): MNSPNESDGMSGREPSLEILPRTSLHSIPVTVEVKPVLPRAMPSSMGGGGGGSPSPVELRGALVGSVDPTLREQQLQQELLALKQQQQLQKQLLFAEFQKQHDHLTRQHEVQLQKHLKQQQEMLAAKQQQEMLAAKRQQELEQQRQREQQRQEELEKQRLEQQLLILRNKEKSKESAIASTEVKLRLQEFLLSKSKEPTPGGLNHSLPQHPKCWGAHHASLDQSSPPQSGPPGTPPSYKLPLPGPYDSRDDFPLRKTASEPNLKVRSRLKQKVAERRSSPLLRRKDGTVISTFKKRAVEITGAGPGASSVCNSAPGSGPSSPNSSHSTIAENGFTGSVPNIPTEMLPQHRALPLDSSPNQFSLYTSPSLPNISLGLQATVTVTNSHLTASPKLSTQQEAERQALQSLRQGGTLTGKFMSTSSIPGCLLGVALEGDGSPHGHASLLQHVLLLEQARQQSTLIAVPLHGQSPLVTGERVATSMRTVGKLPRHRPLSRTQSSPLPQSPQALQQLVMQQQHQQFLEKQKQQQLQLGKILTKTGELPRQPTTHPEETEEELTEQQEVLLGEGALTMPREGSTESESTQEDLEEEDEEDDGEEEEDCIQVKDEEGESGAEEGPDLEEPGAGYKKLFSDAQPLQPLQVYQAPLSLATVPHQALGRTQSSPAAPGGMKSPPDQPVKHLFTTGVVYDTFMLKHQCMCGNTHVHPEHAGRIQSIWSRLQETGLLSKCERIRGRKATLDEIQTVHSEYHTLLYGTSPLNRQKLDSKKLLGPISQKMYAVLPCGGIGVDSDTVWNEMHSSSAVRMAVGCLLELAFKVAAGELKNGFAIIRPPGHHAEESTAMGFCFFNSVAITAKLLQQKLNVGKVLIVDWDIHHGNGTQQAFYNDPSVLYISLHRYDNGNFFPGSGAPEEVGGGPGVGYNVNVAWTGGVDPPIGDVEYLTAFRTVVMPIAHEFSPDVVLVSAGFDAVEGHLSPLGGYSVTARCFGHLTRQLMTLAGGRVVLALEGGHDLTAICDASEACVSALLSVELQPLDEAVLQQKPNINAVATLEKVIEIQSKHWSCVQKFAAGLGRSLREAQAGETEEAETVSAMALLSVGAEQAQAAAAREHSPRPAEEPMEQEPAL
Histone deacetylase 1, sequence (Q13547 whole entry, the tested form may be a part): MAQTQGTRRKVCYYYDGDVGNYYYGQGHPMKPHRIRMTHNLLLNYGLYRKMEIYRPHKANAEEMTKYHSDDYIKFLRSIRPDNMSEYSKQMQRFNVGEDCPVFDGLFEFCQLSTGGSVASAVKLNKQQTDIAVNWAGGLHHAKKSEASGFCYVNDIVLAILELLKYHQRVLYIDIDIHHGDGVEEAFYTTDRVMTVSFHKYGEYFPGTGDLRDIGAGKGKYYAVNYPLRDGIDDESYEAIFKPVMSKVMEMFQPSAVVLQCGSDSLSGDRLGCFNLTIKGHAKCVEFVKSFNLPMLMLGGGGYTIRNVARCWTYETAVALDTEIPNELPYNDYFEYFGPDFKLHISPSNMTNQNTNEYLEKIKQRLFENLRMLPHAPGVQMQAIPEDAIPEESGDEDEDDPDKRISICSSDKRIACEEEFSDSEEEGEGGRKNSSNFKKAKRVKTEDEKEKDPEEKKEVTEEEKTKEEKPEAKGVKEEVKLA
Histone deacetylase 2, sequence (Q92769 whole entry): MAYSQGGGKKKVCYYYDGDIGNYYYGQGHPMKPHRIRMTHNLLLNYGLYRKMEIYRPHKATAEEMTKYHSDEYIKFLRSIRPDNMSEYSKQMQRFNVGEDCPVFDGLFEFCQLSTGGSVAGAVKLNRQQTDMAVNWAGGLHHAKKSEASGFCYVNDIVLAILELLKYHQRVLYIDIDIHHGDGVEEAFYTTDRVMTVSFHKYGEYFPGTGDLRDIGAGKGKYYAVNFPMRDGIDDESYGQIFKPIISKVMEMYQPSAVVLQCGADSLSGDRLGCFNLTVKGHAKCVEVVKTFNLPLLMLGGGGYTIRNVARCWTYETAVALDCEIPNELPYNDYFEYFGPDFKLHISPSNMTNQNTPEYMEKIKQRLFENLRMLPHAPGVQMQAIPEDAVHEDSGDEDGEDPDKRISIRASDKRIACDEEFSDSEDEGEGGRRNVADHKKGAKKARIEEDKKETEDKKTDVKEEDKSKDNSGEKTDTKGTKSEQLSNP
Histone deacetylase 9, sequence (Q9UKV0 whole entry, the tested form may be a part): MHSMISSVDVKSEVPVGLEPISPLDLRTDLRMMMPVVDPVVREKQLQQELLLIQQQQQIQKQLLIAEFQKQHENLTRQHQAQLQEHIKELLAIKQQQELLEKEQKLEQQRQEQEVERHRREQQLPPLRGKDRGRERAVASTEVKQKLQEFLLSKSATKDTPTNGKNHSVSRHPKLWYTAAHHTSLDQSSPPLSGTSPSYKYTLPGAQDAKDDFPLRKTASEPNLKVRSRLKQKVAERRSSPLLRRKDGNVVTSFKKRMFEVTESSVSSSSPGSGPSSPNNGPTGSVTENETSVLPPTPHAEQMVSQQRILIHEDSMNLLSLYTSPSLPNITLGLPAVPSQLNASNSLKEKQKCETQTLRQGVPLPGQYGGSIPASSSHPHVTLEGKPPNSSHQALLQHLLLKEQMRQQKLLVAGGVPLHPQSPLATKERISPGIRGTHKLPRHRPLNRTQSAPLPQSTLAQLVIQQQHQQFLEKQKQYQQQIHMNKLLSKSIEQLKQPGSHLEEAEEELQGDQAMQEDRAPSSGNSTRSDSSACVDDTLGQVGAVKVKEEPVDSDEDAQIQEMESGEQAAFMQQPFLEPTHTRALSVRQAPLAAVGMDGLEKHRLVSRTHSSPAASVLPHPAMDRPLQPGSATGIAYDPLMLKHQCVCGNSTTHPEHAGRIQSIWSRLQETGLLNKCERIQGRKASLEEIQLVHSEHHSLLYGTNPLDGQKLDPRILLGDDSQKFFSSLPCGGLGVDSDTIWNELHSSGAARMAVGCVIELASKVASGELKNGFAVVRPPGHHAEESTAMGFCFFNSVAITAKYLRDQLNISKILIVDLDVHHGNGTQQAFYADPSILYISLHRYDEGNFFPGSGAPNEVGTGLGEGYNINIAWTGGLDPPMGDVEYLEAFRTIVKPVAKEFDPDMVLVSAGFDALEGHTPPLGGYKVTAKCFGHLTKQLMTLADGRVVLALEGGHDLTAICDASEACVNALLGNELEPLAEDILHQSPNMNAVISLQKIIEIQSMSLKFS
Histone deacetylase 4, sequence (P56524 whole entry, the tested form may be a part): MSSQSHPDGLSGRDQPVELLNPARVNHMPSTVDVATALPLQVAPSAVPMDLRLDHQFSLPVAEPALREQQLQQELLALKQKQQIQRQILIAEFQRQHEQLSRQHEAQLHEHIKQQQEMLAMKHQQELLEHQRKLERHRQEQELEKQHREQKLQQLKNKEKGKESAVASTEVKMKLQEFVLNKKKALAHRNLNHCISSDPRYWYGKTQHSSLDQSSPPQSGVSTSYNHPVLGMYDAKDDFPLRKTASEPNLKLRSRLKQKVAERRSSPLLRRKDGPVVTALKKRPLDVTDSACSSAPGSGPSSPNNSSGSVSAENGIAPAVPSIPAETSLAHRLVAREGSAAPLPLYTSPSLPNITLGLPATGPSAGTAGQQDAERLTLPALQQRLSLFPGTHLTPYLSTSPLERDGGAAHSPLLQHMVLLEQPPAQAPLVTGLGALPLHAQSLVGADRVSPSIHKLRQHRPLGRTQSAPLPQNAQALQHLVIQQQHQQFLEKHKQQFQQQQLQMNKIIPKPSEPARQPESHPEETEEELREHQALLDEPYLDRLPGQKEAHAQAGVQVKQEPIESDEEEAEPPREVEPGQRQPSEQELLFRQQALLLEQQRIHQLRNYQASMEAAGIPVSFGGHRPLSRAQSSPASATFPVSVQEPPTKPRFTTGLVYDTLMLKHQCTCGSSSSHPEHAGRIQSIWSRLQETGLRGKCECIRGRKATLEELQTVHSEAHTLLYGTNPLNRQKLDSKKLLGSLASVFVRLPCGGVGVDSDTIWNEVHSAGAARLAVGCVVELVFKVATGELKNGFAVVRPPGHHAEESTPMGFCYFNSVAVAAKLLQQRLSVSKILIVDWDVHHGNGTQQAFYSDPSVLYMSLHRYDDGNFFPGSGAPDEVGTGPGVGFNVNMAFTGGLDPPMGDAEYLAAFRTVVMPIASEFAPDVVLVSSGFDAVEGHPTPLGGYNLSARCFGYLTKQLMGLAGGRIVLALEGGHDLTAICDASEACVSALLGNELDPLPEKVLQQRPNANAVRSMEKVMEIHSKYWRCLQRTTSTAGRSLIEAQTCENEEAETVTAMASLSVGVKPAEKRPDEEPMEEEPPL

## CC(C)(C)Nc1c(-c2cccc(-c3nc4cc(-c5noc(C(F)(F)F)n5)ccc4[nH]3)c2)nc2cnccn12
Histone deacetylase 7
  IC50: > 10 µM
MCF7 [1]
  Activity: Active
MCF7 [2]
  Activity: Active
MCF7 [3]
  Activity: Active
MCF7 [4]
  Activity: Active
Histone deacetylase 2
  IC50: > 10 µM
MCF7 [5]
  Activity: Active
MCF7 [6]
  Activity: Active
MCF7 [7]
  Activity: Active
MCF7 [8]
  Activity: Active
[9]
  IC50: > 10 µM
MCF7 [10]
  Activity: Active
MCF7 [11]
  Activity: Active
MCF7 [12]
  Activity: Active
MCF7 [13]
  Activity: Active
MCF7 [14]
  Activity: Active
Histone deacetylase 5 [15]
  Ratio IC50: > 33
MCF7 [16]
  Activity: Active
Histone deacetylase 1
  IC50: > 10 µM
MCF7 [17]
  Activity: Active
MCF7 [18]
  Activity: Active
MCF7 [19]
  Activity: Active
MCF7 [20]
  Activity: Active
Histone deacetylase 4
  IC50: 8 µM
Histone deacetylase 9
  IC50: > 10 µM
MCF7 [21]
  Activity: Active
MCF7 [22]
  Activity: Active
MCF7 [23]
  Activity: Active
MCF7 [24]
  Activity: Active
MCF7 [25]
  Activity: Active
MCF7 [26]
  Activity: Active
MCF7 [27]
  Activity: Active
MCF7 [28]
  Activity: Active
Histone deacetylase 5 [29]
  IC50: 0.307 µM
MCF7 [30]
  Activity: Active

Source: ChEMBL document CHEMBL4811298, “Discovery of novel class of histone deacetylase inhibitors as potential anticancer agents” (Bioorg Med Chem, 2021)
